According to PubChem BioAssay (NCI):
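The compound was tested at five concentrations on cells cultured in 96-well plates, with a 48-hour exposure period. TGI marks complete inhibition of growth.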

Test system: A498 renal
Assay: NCI tumour cell line growth inhibition, 48 h

O=c1cc(-c2ccc(Oc3ccccc3)cc2)[nH]c2cc3c(cc12)OCO3 and Nc1nc(-c2ccccc2)cc(-c2ccc(OCc3ccccc3)cc2O)n1 cannot be ordered by TGI: > 100 µM for the first, > 100 µM for the second.

CCOC(=O)CC(C)C1(C(=O)OCC)CCCCC1=O (stereo not drawn) and CCOC(=O)C1C(=O)CC1(C)C (stereo not drawn) cannot be ordered by TGI: > 100 µM for the first, > 10 µM for the second.

O=C(N/N=C\C=C\c1ccc([N+](=O)[O-])o1)C(=O)N/N=C\C=C\c1ccc([N+](=O)[O-])o1 and Cc1ccc(S(=O)(=O)N/N=C2/CCCOC2)cc1 cannot be ordered by TGI: > 100 µM for the first, > 100 µM for the second.

CC(=O)O[C@H]1C(=O)[C@@]2(C)C(C(OC(=O)c3ccccc3)[C@]3(O)CC(OC(=O)C(O)C(NC(=O)c4ccc(C(F)(F)F)cc4)c4ccccc4)C(C)=C1C3(C)C)[C@]1(OC(C)=O)CO[C@@H]1C[C@@H]2O (stereo partly drawn) and O=Cc1ccccc1COC(=O)c1cc(C(=O)OCc2ccccc2C=O)c(C(=O)OCc2ccccc2C=O)cc1C(=O)OCc1ccccc1C=O cannot be ordered by TGI: > 37.5 µM for the first, > 100 µM for the second.

CCOC(=O)c1cn2c(n1)sc1cc(Cl)ccc12 and CCOC1=NC(O)c2cccn2-c2sccc21 (stereo not drawn) cannot be ordered by TGI: > 100 µM for the first, > 100 µM for the second.

Cn1c(O)c(C(=O)NC2CCCCC2)c(=O)n(C)c1=S and CC1S/C(=N\N=C2/C(=O)Nc3ccc(Br)cc32)N(C2CCCCC2)C1=O (stereo not drawn) are within 1.5-fold of each other in TGI: 13 µM for the first, 12.5 µM for the second.

Going from CCN1CCN(c2nc3ccccc3c3c2CCOc2ccccc2-3)CC1 to CCCCC1Cc2ccccc2-c2nc3ccccc3n21 (stereo not drawn), the TGI falls from > 57.4 µM to 30.6 µM.

First: Nc1nc([O-])c2c(n1)[n+](C1OC(CO)C(O)C1O)cn2CCO (stereo not drawn)
Second: CCC(=O)Oc1ccc2c(c1)c(=O)c1c(NCCCN(C)C)ccc3nnn2c31
The TGI of the first is higher: > 100 µM for the first, 18.3 µM for the second.

O=C(NCP(=O)(c1ccccc1)c1ccccc1)OCc1ccccc1 and Cc1cc(N(CCC#N)CCC#N)ccc1/C=C(\NC(=O)/C=C/c1ccccc1)C(N)=O cannot be ordered by TGI: > 100 µM for the first, > 100 µM for the second.

CCOC(C)O[C@H]1C(=O)OCC1(C)C (stereo partly drawn) and CC(CC[C@@]1(C)C(=O)CCC2O[C@]21C)[C@H]1C[C@@H](c2ccoc2)OC1=O (stereo partly drawn) cannot be ordered by TGI: > 100 µM for the first, > 100 µM for the second.

COC(=O)c1cc2c(cc1CC(Cc1ccc3c(c1)CCCC3)C(=O)OC)CCCC2 (stereo not drawn) and CN(C)CC1CCCC(CN(C)C)C1OC(=O)c1ccccc1 (stereo not drawn) cannot be ordered by TGI: > 100 µM for the first, > 100 µM for the second.

First: O=C1c2ccsc2C(=O)c2sc(CO)cc21
Second: O=C(c1cccs1)N1CCc2ccccc2C1
The TGI of the first is lower: 0.792 µM for the first, > 100 µM for the second.

With C[Si](C)(C)OC1CC(=O)OC1n1cc(F)c(=O)[nH]c1=O (stereo not drawn) the TGI was > 100 µM.

Test system: A549 NSCLC
Assay: NCI tumour cell line growth inhibition, 48 h

O=c1cc(-c2ccc(Oc3ccccc3)cc2)[nH]c2cc3c(cc12)OCO3 and Nc1nc(-c2ccccc2)cc(-c2ccc(OCc3ccccc3)cc2O)n1 cannot be ordered by TGI: > 100 µM for the first, > 100 µM for the second.

CCOC(=O)CC(C)C1(C(=O)OCC)CCCCC1=O (stereo not drawn) and CCOC(=O)C1C(=O)CC1(C)C (stereo not drawn) cannot be ordered by TGI: > 100 µM for the first, > 10 µM for the second.

O=C(N/N=C\C=C\c1ccc([N+](=O)[O-])o1)C(=O)N/N=C\C=C\c1ccc([N+](=O)[O-])o1 and Cc1ccc(S(=O)(=O)N/N=C2/CCCOC2)cc1 cannot be ordered by TGI: > 100 µM for the first, > 100 µM for the second.

CC(=O)O[C@H]1C(=O)[C@@]2(C)C(C(OC(=O)c3ccccc3)[C@]3(O)CC(OC(=O)C(O)C(NC(=O)c4ccc(C(F)(F)F)cc4)c4ccccc4)C(C)=C1C3(C)C)[C@]1(OC(C)=O)CO[C@@H]1C[C@@H]2O (stereo partly drawn) and O=Cc1ccccc1COC(=O)c1cc(C(=O)OCc2ccccc2C=O)c(C(=O)OCc2ccccc2C=O)cc1C(=O)OCc1ccccc1C=O cannot be ordered by TGI: > 37.5 µM for the first, > 100 µM for the second.

COC(=O)CC1N=C(NC#N)N(CCc2c[nH]c3ccccc23)C1=O (stereo not drawn) and CCOC(=O)c1cn2c(n1)sc1cc(Cl)ccc12 cannot be ordered by TGI: > 100 µM for the first, > 100 µM for the second.

Cn1c(O)c(C(=O)NC2CCCCC2)c(=O)n(C)c1=S and CC1S/C(=N\N=C2/C(=O)Nc3ccc(Br)cc32)N(C2CCCCC2)C1=O (stereo not drawn) are within 1.5-fold of each other in TGI: 17.4 µM for the first, 12.6 µM for the second.

CCN1CCN(c2nc3ccccc3c3c2CCOc2ccccc2-3)CC1 and O=C(c1cccs1)N1CCc2ccccc2C1 cannot be ordered by TGI: > 69.3 µM for the first, > 100 µM for the second.

Going from Nc1nc([O-])c2c(n1)[n+](C1OC(CO)C(O)C1O)cn2CCO (stereo not drawn) to CCC(=O)Oc1ccc2c(c1)c(=O)c1c(NCCCN(C)C)ccc3nnn2c31, the TGI falls from > 100 µM to 13.4 µM.

O=C(NCP(=O)(c1ccccc1)c1ccccc1)OCc1ccccc1 and Cc1cc(N(CCC#N)CCC#N)ccc1/C=C(\NC(=O)/C=C/c1ccccc1)C(N)=O cannot be ordered by TGI: > 100 µM for the first, > 100 µM for the second.

CCOC(C)O[C@H]1C(=O)OCC1(C)C (stereo partly drawn) and CC(CC[C@@]1(C)C(=O)CCC2O[C@]21C)[C@H]1C[C@@H](c2ccoc2)OC1=O (stereo partly drawn) cannot be ordered by TGI: > 100 µM for the first, > 100 µM for the second.

First: CCOC1=NC(O)c2cccn2-c2sccc21 (stereo not drawn)
Second: O=C1c2ccsc2C(=O)c2sc(CO)cc21
The TGI of the first is higher: > 100 µM for the first, 0.125 µM for the second.

COC(=O)c1cc2c(cc1CC(Cc1ccc3c(c1)CCCC3)C(=O)OC)CCCC2 (stereo not drawn) and CN(C)CC1CCCC(CN(C)C)C1OC(=O)c1ccccc1 (stereo not drawn) cannot be ordered by TGI: > 100 µM for the first, > 100 µM for the second.

For C[Si](C)(C)OC1CC(=O)OC1n1cc(F)c(=O)[nH]c1=O (stereo not drawn), the TGI was > 100 µM.

Test system: CAKI-1 renal
Assay: NCI tumour cell line growth inhibition, 48 h

Compared with CCOC(=O)CC(C)C1(C(=O)OCC)CCCCC1=O (stereo not drawn), Cn1c(O)c(C(=O)NC2CCCCC2)c(=O)n(C)c1=S is lower in TGI: > 100 µM for the first, 26.5 µM for the second.

O=C(N/N=C\C=C\c1ccc([N+](=O)[O-])o1)C(=O)N/N=C\C=C\c1ccc([N+](=O)[O-])o1 and CCOC(=O)c1cn2c(n1)sc1cc(Cl)ccc12 cannot be ordered by TGI: > 100 µM for the first, > 100 µM for the second.

CC(=O)O[C@H]1C(=O)[C@@]2(C)C(C(OC(=O)c3ccccc3)[C@]3(O)CC(OC(=O)C(O)C(NC(=O)c4ccc(C(F)(F)F)cc4)c4ccccc4)C(C)=C1C3(C)C)[C@]1(OC(C)=O)CO[C@@H]1C[C@@H]2O (stereo partly drawn) and Nc1nc(-c2ccccc2)cc(-c2ccc(OCc3ccccc3)cc2O)n1 cannot be ordered by TGI: > 37.5 µM for the first, > 100 µM for the second.

CCN1CCN(c2nc3ccccc3c3c2CCOc2ccccc2-3)CC1 and Nc1nc([O-])c2c(n1)[n+](C1OC(CO)C(O)C1O)cn2CCO (stereo not drawn) cannot be ordered by TGI: > 55.3 µM for the first, > 100 µM for the second.
